{"source": "patent US20240082273A1", "about": "“NEUROKININ INHIBITORS SUCH AS APREPITANT FOR TREATING NON SMALL CELL LUNG CARCINOMA OR BREAST CANCER WITHOUT MUTATIONS” (priority 2020, published 2024)", "key": {"[1]": {"tested_on": "lung cancer cell line with molecular profile EGFR+/ALK−/ROS1− (HCC4006)", "experiment": "MTT proliferation, NSCLC cell line with EGFR+/ALK−/ROS1− profile", "type": "cell-based, human", "conditions": "48 hours", "source_text": "(§1) EGFR, ALK and ROS1 are key molecular factors that may be used to determine pathological classification, prognosis, therapeutics and behaviour in patients with lung cancer. EGFR, ALK and ROS1 are biomarkers routinely analysed in the clinical practice of the management of patients with NSCLC. NSCLC with molecular profile EGFR-/ALK-/ROS1- presents a better response to treatment with the NK1 inhibitor aprepitant, compared to lung cancer with different profiles (in particular, EGFR+/ALK-/ROS1- and EGFR-/ALK+/ROS1-, in which EGFR and ALK respectively contain mutations relative to their wild type gene). Commercial lines of lung cancer were used as shown in Table 2 together with their molecular profile. The molecular profile of the cancer cell lines was determined by sequencing and can be consulted in the Cancer Cell Line Encyclopaedia database of public access available at the url: https://portals.broadinstitute.org/ccle All cells were cultured in wells under vendor-recommended conditions and exposed to different concentrations of aprepitant for 48 hours. In each case a group of wells of cells were used to which no treatment was applied and which were considered as controls. At 48 hours the number of cells was measured. Eight cell lines of human were used for the study of NK1 inhibitors (Table 3). All of them were maintained in culture in their respective culture media (Gibco,Thermo Fisher Scientific) supplemented with 10% foetal bovine serum (FBS) (Gibco, Thermo Fisher Scientific), 2 mM L-Glutamine (Gln) (Sigma-Aldrich, Merk), and […] and […] Gibco, Thermo Fisher Scientific) in a humidified incubator at 37° C. and 5% CO2. Cell culture media used are Dulbecco's Modified Eagle Medium (DMEM), and RPMI Medium 1640 (RPMI-1640). To measure cell viability, the cytotoxicity of drugs in culture was evaluated using the 3-(4,5-Dimethyl-2-thiazolyl)-2,5-diphenyl-2H-tetrazolium bromide (MTT) reduction assay. This assay assesses cell viability through the indirect measurement of the activity of reductases that convert yellow soluble MTT into purple insoluble formazan salts. As MTT can only be reduced when these enzymes are active, the reaction is used as an indicator of the cell metabolic competence and, therefore, of viability. A variable number of cells (depending on the cell line) were seeded in 96 multi-well plates and grown during 24 hours. The following day, the culture medium was aspirated and fresh culture medium with the drug dissolved was added to the wells. After 24 hours or 48 hours cell viability was measurement by adding 10 μl of a 5 mg/ml MTT solution (M5655; Sigma-Aldrich) and 100 μl of HCl 0.01M-SDS 10% solution 4 hours later. After 24 hours, the absorbance was measured at 595 nm, using a multi-well plate reader (iMark, Bio-rad). Each condition was tested 5 times, obtaining 5 values of absorbance. All sample measurements were corrected using the blank (culture medium without cells) mean absorbance value, and normalized to positive control to determinate relative cell viability for each condition at 24 and 48 hours."}, "[2]": {"tested_on": "H441", "experiment": "MTT proliferation, H441", "type": "cell-based, human", "conditions": "48 hours", "source_text": "as §1"}, "[3]": {"tested_on": "breast cancer cell lines ER+/PR+/HER2− (MCF7, T47D)", "experiment": "MTT proliferation, breast cancer cell lines ER+/PR+/HER2−", "type": "cell-based, human", "conditions": "48 hours", "method": "All cells were cultured in wells under vendor-recommended conditions and exposed to different concentrations of aprepitant for 48 hours. In each case a group of wells of cells were used to which no treatment was applied and which were considered as controls. At 48 hours the number of cells was measured. To measure cell viability, the cytotoxicity of drugs in culture was evaluated using the 3-(4,5-Dimethyl-2-thiazolyl)-2,5-diphenyl-2H-tetrazolium bromide (MTT) reduction assay. This assay assesses cell viability through the indirect measurement of the activity of reductases that convert yellow soluble MTT into purple insoluble formazan salts. As MTT can only be reduced when these enzymes are active, the reaction is used as an indicator of the cell metabolic competence and, therefore, of viability. A variable number of cells (depending on the cell line) were seeded in 96 multi-well plates and grown during 24 hours. The following day, the culture medium was aspirated and fresh culture medium with the drug dissolved was added to the wells. After 24 hours or 48 hours cell viability was measurement by adding 10 μl of a 5 mg/ml MTT solution (M5655; Sigma-Aldrich) and 100 μl of HCl 0.01M-SDS 10% solution 4 hours later. After 24 hours, the absorbance was measured at 595 nm, using a multi-well plate reader (iMark, Bio-rad). Each condition was tested 5 times, obtaining 5 values of absorbance. All sample measurements were corrected using the blank (culture medium without cells) mean absorbance value, and normalized to positive control to determinate relative cell viability for each condition at 24 and 48 hours."}, "[4]": {"tested_on": "human primary triple negative breast carcinoma (ER−/PR−/HER2−) tumour cells", "experiment": "Primary triple negative breast carcinoma xenograft mouse model", "type": "in vivo, nu/nu Balb/c nude mice", "conditions": "for Mean proliferation: 28 days", "method": "Immunocompromised female mice, 5-6 weeks of age were used, nu/nu Balb/c nude mice, provided by Harlan Iberica Barcelona (Spain). They were kept at 24° C. and in sterile conditions with food and water “ad libitum”. They were injected with 2×10^7 tumour cells, corresponding to human primary triple negative breast carcinoma (i.e. tumour cells having a ER−/PR−/HER2− molecular profile) in 200 μl of PBS subcutaneous route. The tumour size was measured and the mice were evaluated for their state of health and weight daily. The mice were randomised in groups when the tumours reached a volume of 75 mm^3. One of the groups was treated with 200 μl of placebo (control group) and the eight remaining groups with doses of 1 to 100 mg per kilogram of weight and day of the NK1 inhibitor aprepitant. Five animals were treated per group, during 28 days. All the mice were sacrificed at the end of the experiment."}}, "data": [{"smiles": "C[C@@H](O[C@H]1OCCN(Cc2nc(=O)[nH][nH]2)[C@H]1c1ccc(F)cc1)c1cc(C(F)(F)F)cc(C(F)(F)F)c1", "note": "[Aprepitant]", "values": [{"measurement": "Mean proliferation", "setting": "[1]; aprepitant 1 μM", "result": 101.53}, {"measurement": "Mean proliferation", "setting": "[1]; aprepitant 3 μM", "result": 99.73}, {"measurement": "Mean proliferation", "setting": "[1]; aprepitant 5 μM", "result": 96.4}, {"measurement": "Mean proliferation", "setting": "[1]; aprepitant 10 μM", "result": 89.14}, {"measurement": "Mean proliferation", "setting": "[1]; aprepitant 20 μM", "result": 69.95}, {"measurement": "Mean proliferation", "setting": "[1]; aprepitant 30 μM", "result": 54.9}, {"measurement": "Mean proliferation", "setting": "[1]; aprepitant 40 μM", "result": 38.12}, {"measurement": "Mean proliferation", "setting": "[1]; aprepitant 50 μM", "result": 24.82}, {"measurement": "Mean proliferation", "setting": "[1]; aprepitant 60 μM", "result": 14.95}, {"measurement": "Mean proliferation", "setting": "[2]; aprepitant 1 μM", "result": 100.6}, {"measurement": "Mean proliferation", "setting": "[2]; aprepitant 3 μM", "result": 90.97}, {"measurement": "Mean proliferation", "setting": "[2]; aprepitant 5 μM", "result": 64.10}, {"measurement": "Mean proliferation", "setting": "[2]; aprepitant 10 μM", "result": 61.08}, {"measurement": "Mean proliferation", "setting": "[2]; aprepitant 20 μM", "result": 53.64}, {"measurement": "Mean proliferation", "setting": "[2]; aprepitant 30 μM", "result": 37.56}, {"measurement": "Mean proliferation", "setting": "[2]; aprepitant 40 μM", "result": 20.50}, {"measurement": "Mean proliferation", "setting": "[2]; aprepitant 50 μM", "result": 3.14}, {"measurement": "Mean proliferation", "setting": "[2]; aprepitant 60 μM", "result": 10.83}, {"measurement": "Mean proliferation", "setting": "[3]; aprepitant 0.3 μM", "result": 102.47}, {"measurement": "Mean proliferation", "setting": "[3]; aprepitant 1 μM", "result": 99.16}, {"measurement": "Mean proliferation", "setting": "[3]; aprepitant 3 μM", "result": 106.96}, {"measurement": "Mean proliferation", "setting": "[3]; aprepitant 10 μM", "result": 81.55}, {"measurement": "Mean proliferation", "setting": "[3]; aprepitant 20 μM", "result": 67.98}, {"measurement": "Mean proliferation", "setting": "[3]; aprepitant 30 μM", "result": 54.13}, {"measurement": "Mean proliferation", "setting": "[3]; aprepitant 40 μM", "result": 35.22}, {"measurement": "Mean proliferation", "setting": "[3]; aprepitant 50 μM", "result": 21.79}, {"measurement": "Mean proliferation", "setting": "[3]; aprepitant 60 μM", "result": 11.7}, {"measurement": "Mean proliferation", "setting": "[4]; aprepitant 1 mg/kg/day", "result": 104}, {"measurement": "Mean proliferation", "setting": "[4]; aprepitant 3 mg/kg/day", "result": 108}, {"measurement": "Mean proliferation", "setting": "[4]; aprepitant 5 mg/kg/day", "result": 112}, {"measurement": "Mean proliferation", "setting": "[4]; aprepitant 8 mg/kg/day", "result": 110}, {"measurement": "Mean proliferation", "setting": "[4]; aprepitant 10 mg/kg/day", "result": 99}, {"measurement": "Mean proliferation", "setting": "[4]; aprepitant 20 mg/kg/day", "result": 76}, {"measurement": "Mean proliferation", "setting": "[4]; aprepitant 30 mg/kg/day", "result": 65}, {"measurement": "Mean proliferation", "setting": "[4]; aprepitant 40 mg/kg/day", "result": 61}, {"measurement": "Mean proliferation", "setting": "[4]; aprepitant 50 mg/kg/day", "result": 56}, {"measurement": "Mean proliferation", "setting": "[4]; aprepitant 60 mg/kg/day", "result": 54}, {"measurement": "Mean proliferation", "setting": "[4]; aprepitant 70 mg/kg/day", "result": 50}, {"measurement": "Mean proliferation", "setting": "[4]; aprepitant 80 mg/kg/day", "result": 50}, {"measurement": "triple negative human primary breast carcinoma proliferation in a xenograft model", "setting": "[4]; dose-dependent fashion", "result": "reduces"}]}]}
